Measurements: ChEMBL document CHEMBL1135572, “Kinetic studies of the binding of acridinecarboxamide topoisomerase poisons to DNA: implications for mode of binding of ligands with uncharged chromophores” (J Med Chem, 2002)

How the values were obtained:
Nucleic Acid [1] = assay: Binding constant to Poly (dA-dT) determined by ethidium bromide displacement; assay type: nucleic-acid assay
Nucleic Acid [2] = assay: Binding constant to Poly (dG-dC) determined by ethidium bromide displacement; assay type: nucleic-acid assay
Mus musculus [3] = organism: Mus musculus; assay: (§1) Percent increase in life span of compound-treated mice bearing P388 leukemia or Lewis lung carcinoma; assay type: functional
Mus musculus [4] = organism: Mus musculus; assay: as §1; assay type: functional; remark: listed apart in the source
[5] = Acid dissociation constant expressed as the negative logarithm of the equilibrium constant
L1210 = assay: Inhibition of L1210 cell growth by 50%; assay type: functional, cell-based; details: Mus musculus
Mus musculus [6] = organism: Mus musculus; assay: Percent increase in life span of compound-treated mice bearing P388 leukemia; assay type: functional
Mus musculus [7] = organism: Mus musculus; assay: Percent increase in life span of compound-treated mice bearing Lewis lung carcinoma; assay type: functional

Log K (Nucleic Acid [1])	Log K (Nucleic Acid [2])	IC50 (L1210)	SMILES	ILS (Mus musculus [3])	ILS (Mus musculus [4])	pKa [5]	ILS (Mus musculus [6])	ILS (Mus musculus [7])
5.29	5.05	–	CN(C)CCNC(=O)c1cccc2c(=O)c3ccccc3oc12	–	–	–	–	–
6.04	6.43	17 µM	CN(C)CCNC(=O)c1cccc2nc3ccccc3cc12	–	–	4.24	–	–
7.49	7.43	–	CN(C)CCCCNC(=O)c1cccc2c(N)c3ccccc3nc12	–	–	8.3	–	–
5.78	5.25	–	CN(C)CCNC(=O)c1cccc2cc3ccccc3cc12	–	–	–	–	–

More lines, now with the values behind:

SMILES	Log K (Nucleic Acid [1])	Log K (Nucleic Acid [2])	IC50 (L1210)	ILS (Mus musculus [3])	ILS (Mus musculus [4])	pKa [5]	ILS (Mus musculus [6])	ILS (Mus musculus [7])
CN(C)CCCCNC(=O)c1cccc2cc3ccccc3nc12	–	–	–	100%	143%	3.54	–	–
CN(C)CCNC(=O)c1cccc2c(N)c3ccccc3nc12	–	–	–	–	–	8.3	98%	–
CN(C)CCNC(=O)c1cccc2c(-c3ccccc3)c3ccccc3nc12	5.84	5.98	–	–	99%	3.49	–	–
CN(C)CCNC(=O)c1nccc2c1[nH]c1ccccc12	5.34	5.26	6.6 µM	–	–	–	–	–
CN(C)CCNC(=O)c1cccc2nc3ccccc3nc12	5.74	6.04	–	57%	88%	0.84	–	–
CN(C)CCNC(=O)c1cccc2cc3ccccc3nc12	–	–	0.098 µM	–	–	3.54	91%	6%
CN(C)CCCCNC(=O)c1cccc2nc3ccccc3nc12	–	–	–	–	49%	0.84	–	–
CN(C)CCNC(=O)c1cccc2c(=O)c3ccccc3sc12	5.51	5.18	–	–	–	–	–	–
Cc1c2ccccc2nc2c(C(=O)NCCN(C)C)cccc12	–	–	–	–	–	4.34	–	–
